# Experimental data taken from patent US20120184744A1, “CRYSTALLINE HYDROCHLORIDE SALTS OF C-MET KINASE INHIBITORS” (priority 2009, published 2012).
# Structures can show the parent of a compound that is named as a salt.
# Tests used:
# Format in all cases: physicochemical
# [1] = Slurry experiment in organic solvent:H2O co-solvent (transition water activity, form conversion)
# Description: This transition water activity was determined based on slurry experiment in Acetone:H2O, DMF:H2O and THF:H2O co-solvent. […] Crystalline mono-HCl salt hydrate dehydrates and converts to mono-HCl salt anhydrate Form II when exposed to low relative humidity or heated at high temperature.
# (§1) It rehydrates and converts back to the mono-HCl salt hydrate when exposed to higher than 75% relative humidity at room temperature. The mono-HCl salt anhydrate Form II can also convert to crystalline mono-HCl salt anhydrate Form I when slurried in Acetone:H2O co-solvent or other co-solvent systems with water activity below 0.57-0.60.
# [2] = Crystal form conversion on exposure to relative humidity; details: room temperature
# Excerpt: as §1
# The 1.6-HCl salt anhydrate of Compound A is further characterized by reflections corresponding to d-spacings of 5.03, 4.30, and 4.14 angstroms. The 1.6-HCl salt anhydrate of Compound A is even further characterized by reflections corresponding to d-spacings of 3.93, 3.63, and 3.50 angstroms. The 1.6-HCl salt anhydrate converts to the 1.6-HCl salt hydrate upon exposure to 10-95% relative humidity at room temperature.
# [3] = Physical stability of the solid on storage under controlled temperature/relative humidity; details: for physical stability after storage: 5 months
# [4] = Solubility in 14.6 wt % IPA in DMF; details: organic solvent or mixture
# Description: To prepare the mono-HCl salt anhydrate Form I of Compound A, dissolve 1.00 g of Compound A freebase monohydrate in 7.0 mL (6.65 g) DMF at 55° C. Next, charge 0.05 eq of HCl. Then, charge 0.25 wt % media-milled seed ([…] of API). The solubility of Compound A HCl seed in 14.6 wt % IPA in DMF is <2 mg/mL. Age seed bed for 1 hr. Next, charge 0.92 eq of HCl over 8 hrs (linear charge rate) holding batch at 55. No dispersion is required. Total HCl charge is 0.97 eq. Cool the batch from 55° C. to 22° C. over 1 hr. Hold batch at 22° C. for one hour, then filter.
structure (smiles),measurement,setting,value
Cn1cc(-c2cnc3ccc4ccc(CS(=O)(=O)NCc5ccccn5)cc4c(=O)c3c2)cn1 [mono-HCl salt hydrate],transition water activity above which the mono-HCl salt hydrate is thermodynamically more stable than mono-HCl salt anhydrate Form I,"[1]; room temperature or 40° C., slurry in Acetone:H2O, DMF:H2O and THF:H2O co-solvent",0.57-0.60
Cn1cc(-c2cnc3ccc4ccc(CS(=O)(=O)NCc5ccccn5)cc4c(=O)c3c2)cn1 [1.6-HCl salt anhydrate],relative humidity at which it converts to the 1.6-HCl salt hydrate,[2],10-95%
Cn1cc(-c2cnc3ccc4ccc(CS(=O)(=O)NCc5ccccn5)cc4c(=O)c3c2)cn1 [Form I],physical stability after storage,[3]; 40° C./75% relative humidity,physically stable
same,physical stability after storage,[3]; room temperature/53% relative humidity,physically stable
same,physical stability after storage,[3]; room temperature/85% relative humidity,physically stable
same,solid conversion to the mono-HCl salt hydrate,"[3]; solid state, on storage",has not been observed
Cn1cc(-c2cnc3ccc4ccc(CS(=O)(=O)NCc5ccccn5)cc4c(=O)c3c2)cn1 [Compound A HCl seed],solubility,[4],< 2000 µg/mL
Cn1cc(-c2cnc3ccc4ccc(CS(=O)(=O)NCc5ccccn5)cc4c(=O)c3c2)cn1 [mono-HCl salt anhydrate Form II],water activity at which it converts to mono-HCl salt anhydrate Form I,[1]; slurried in Acetone:H2O co-solvent or other co-solvent systems,0.57-0.60
same,relative humidity at which it rehydrates and converts back to the mono-HCl salt hydrate,[2],higher than 75%
